Experimental data taken from patent US9856225B2, “Substituted phenazines as antimicrobial agents” (University of Florida Research Foundation, Incorporated, priority 2013, dated 2018).
In brackets after ≈: the same amount, converted by molar mass. Several values for one entry are separate records, joined by “and”; a condition that tells them apart may be missing. Equal entries are not always repeated. Where two headings read alike, the source gives them in different places. Marks after values point to notes of the source that are not given here.

Experiments:
[1] = test system: Pseudomonas aeruginosa (PAO1); assay: MIC broth microdilution (CLSI), Luria Broth; format: cell-based; settings: Table 1, PAO1, read-out: Pseudomonas aeruginosa MIC
Method: (§1) Antibiotic Susceptibility Tests (MIC Assay Protocol). The minimum inhibitory concentration (MIC) for each compound described herein was determined by the broth microdilution method as recommended by the Clinical and Laboratory Standards Institute (CLSI) (Clinical and Laboratory Standards Institute. 2009. Methods for dilution antimicrobial susceptibility tests for bacteria that grow aerobically; approved standard, eighth edition (M7-A8)). In a 96-well plate, eleven two-fold serial dilutions of each compound were made in a final volume of 100 μL Luria Broth (one column served as a blank; see the MIC assay described herein). Each well was inoculated with 10^5 bacterial cells at the initial time of incubation, prepared from a fresh log phase culture (OD600 of 0.5). […] The concentration range tested for each compound during this study was 0.10 to 100 μM. DMSO served as the vehicle and negative control in each microdilution MIC assay. DMSO was serially diluted at the same concentration as the compounds with a top concentration of 1% v/v. Bacterial strains used: Staphylococcus aureus (ATCC 25923), Staphylococcus epidermidis (ATCC 12228) and Pseudomonas aeruginosa (PAO1). Kanamycin was used as a positive control against Staphylococcus aureus and Staphylococcus epidermidis.

[2] = test system: Staphylococcus aureus (ATCC 25923); assay: MIC broth microdilution (CLSI), Luria Broth; format: cell-based; settings: Staphylococcus aureus, ATCC25923, Table 1, ATCC 25923, read-out: Staphylococcus aureus MIC
Method: as §1

Solubility observation = format: physicochemical
Method: 6,9-Dibromophenazine-1-carboxylic acid (18) and methyl-6,9-dibromophenazine-1-carboxylate (35). 2-((2,5-Dibromophenyl)amino)-3-nitrobenzoic acid (497 mg, 1.16 mmol) was dissolved in 19 mL 2 N aqueous sodium hydroxide and treated with sodium borohydride (131 mg, 3.47 mmol). The resulting reaction mixture was then refluxed for 1.5 hours. After this time, the reaction was made acidic with 2 N aqueous hydrochloric acid, and the resulting precipitate was filtered. The filter cake was then washed with hot chloroform to afford 143 mg (32% yield) of 6,9-dibromophenazine-1-carboxylic acid 18 as a yellow-green solid. […] A small portion of this material was converted to methyl ester 35 for characterization purposes using the following procedure. To a stirred suspension of 6,9-dibromophenazine-1-carboxylic acid (3.7 mg, 0.0097 mmol) in 0.4 mL dimethylformamide was sequentially added potassium carbonate (22 mg, 0.16 mmol) and one drop of iodomethane. The reaction was allowed to stir overnight at room temperature. The reaction was then transferred to a separatory funnel and partitioned between ethyl acetate and water. The organic layer was then washed with brine and collected. […] The crude material was taken up in chloroform and passed over a silica plug to furnish 3.8 mg (quantitative yield) of methyl-6,9-dibromophenazine-1-carboxylate 35 as a yellow solid.

[3] = test system: Staphylococcus epidermidis (ATCC 12228); assay: MIC broth microdilution (CLSI), Luria Broth; format: cell-based; settings: ATCC12228, Table 1, ATCC 12228, read-out: Staphylococcus epidermidis MIC
Method: as §1

[4] = Stability of DMSO stock solutions; format: physicochemical
Method: Compound storage. Solid stocks of the compounds described herein were stored at −80° C. in vials sealed with PARAFILM. Between 2.0 and 4.5 milligrams of each compound was weighed out, and a 10 mM DMSO stock solution of each compound were prepared. DMSO stock solutions were stored at room temperature in the dark (e.g., wrapped in aluminum foil). At this concentration, a few compounds required gentle heating to completely solubilize. DMSO stock solutions were not subjected to any freeze-thaw cycles to prevent compound breakdown. The compounds were stable in DMSO for several weeks under these mild storage conditions, with the exception of pyocyanin. Pyocyanin is unstable in DMSO at room temperature after one day. […] DMSO stock solutions of about 2 milligrams of pyocyanin were made fresh each day. The hydrolysis stability of select compounds was also tested, e.g., by subjecting these compounds to conditions mimicking the biofilm assays described herein. In one set of exemplary experiments, 3.2 to 4.5 mgs of each of compounds 18a, 12a, 23a, and 21 were treated with 1 mL of sterile water to form a mixture. […] After 24 hours, each of the mixtures was extracted with dichloromethane and evaluated, using TLC and NMR, for hydrolysis of each of compounds 18a, 12a, 23a, and 21 to compound 11.

MRSA-2 biofilms = assay: Biofilm eradication assay (MBEC); format: cell-based, Staphylococcus aureus; settings: for Biofilm Eradication MBEC: MRSA-2
Method: Biofilm eradication assays. […] The protocol for the biofilm eradication assays was essentially the same as the protocols reported in Eun et al., J. Am. Chem. Soc., 2012, 134, 11322 and Ceri et al., J. Clin. Microbiol., 1999, 37, 1771. Biofilm eradication assays were essentially biofilm dispersion assays with the addition of a final treatment with fresh media (and incubation at 37° C. for 24 hours) instead of crystal violet staining. This final incubation allowed viable cells within the biofilm to grow. At the end of this final incubation in biofilm eradication assays, microtiter wells void of turbidity represented eradicated biofilms, and the lowest concentration at which no visible growth was observed was referred to as the minimum biofilm eradication concentration (MBEC). Potent biofilm eradicating small molecules are extremely rare (Fletcher et al., Tetrahedron, 2014, 70, 6373; Jennings et al., ChemBioChem, 2014, 15, 2211). For these experiments, MRSA-2 was selected as the model since MRSA-2 is a multidrug-resistant, biofilm-forming clinical isolate of Staphylococcus aureus (Priyaja et al., Cytotechnol., 2014, doi: 10.1007/s10616-014-9765-5).

MRSA-2 = assay: MIC against MRSA-2; format: cell-based; settings: Staphylococcus aureus, read-out: MIC against MRSA-2
Method: as §1, with “Kanamycin was used as a positive control against Staphylococcus aureus and Staphylococcus epidermidis.” left out
(§2) Vancomycin's activity against MRSA-2. Vancomycin was also evaluated against MRSA-2 since vancomycin has been considered to be the drug of last resort against MRSA infections.

S. aureus ATCC 29213 = assay: MIC against S. aureus ATCC 29213; format: cell-based; settings: Staphylococcus aureus, ATCC29213
Method: as §2

| SMILES | MIC [1] [µM] | MIC ([2]; range tested 0.10 to 100 μM) [µM] | MIC [2] [µg/mL] | solubility (in words) (Solubility observation) | MIC [3] | stability in DMSO ([4]; 10 mM DMSO stock, room temperature, dark) | decomposition in d6-DMSO (NMR) ([4]; after 8 hours at room temperature) | Biofilm Eradication MBEC (MRSA-2 biofilms) | Biofilm Eradication MBEC (MRSA-2 biofilms; listed as vancomycin) | MBEC:MIC ratio (MRSA-2 biofilms; MRSA-2 biofilm vs planktonic) | MIC (MRSA-2) [µM] | MIC (S. aureus ATCC 29213) [µM] |
| --- | --- | --- | --- | --- | --- | --- | --- | --- | --- | --- | --- | --- |
| O=C(O)c1cccc2nc3c(Br)ccc(Br)c3nc12 [Compound 18, 6,9-Dibromophenazine-1-carboxylic acid] | > 100 | > 100 | > 38.3 | extremely low solubility | – | – | – | – | – | – | – | – |
| Cn1c2cccc(=O)c-2nc2ccccc21 [Compound 1, Pyocyanin, reference compound] | > 100 | 50 | 10.6 | – | 50 µM and 10.6 µg/mL | unstable | significant decomposition | – | – | – | – | – |
| CN[C@H](CC(C)C)C(=O)N[C@H]1C(=O)N[C@@H](CC(N)=O)C(=O)N[C@H]2C(=O)N[C@H]3C(=O)N[C@H](C(=O)N[C@H](C(=O)O)c4cc(O)cc(O)c4-c4cc3ccc4O)[C@H](O)c3ccc(c(Cl)c3)Oc3cc2cc(c3O[C@@H]2O[C@H](CO)[C@@H](O)[C@H](O)[C@H]2O[C@H]2C[C@](C)(N)[C@H](O)[C@H](C)O2)Oc2ccc(cc2Cl)[C@H]1O [Vancomycin, reference compound] | – | – | – | – | – | – | – | >2,000^d μM | > 2,000 μM | > 2,564 | 0.78 (≈ 1.13 µg/mL) | 0.39 to 0.78 (≈ 0.565 to 1.13 µg/mL) |
